Values quoted from earlier work in patent US20020012702A1, “Controlled release anti-inflammatory oral formulation and a process for the preparation thereof” (Ajanta Pharma, Ltd., priority 2000, published 2002).

Compound: CS(=O)(=O)Nc1ccc([N+](=O)[O-])cc1Oc1ccccc1 [Nimesulide, 4-Nitro-2-phenoxymethane sulfonanilide]
- nimesulide plasma concentrations in the presence of food versus fasting conditions (administered in the presence of food, higher than under fasting conditions): 2 to 4 fold
- half life (in vivo): 3 to 4 h
